Experiments:
LGR5 [1] = experiment: LGR5 expression in treated CRC cell lines by flow cytometry; format: cell-based; settings: 1 um, 72 hrs
Method: A panel of CRC cell lines including DLD1, HCT116, LS174t, LoVo, SW48, SW480 and SW620 were treated with a PI3K/mTOR dual inhibitor (NVP) or 2 different cytotoxic agents including SN38 (active metabolite of Irinotecan) or 5FU (5 fluorouracil). Cells were treated with the above agents at 1 um and were harvested after 72 hrs. Cells were then stained with anti-LGR5 Mab conjugated to Alexa Fluor647 and the data were analyzed by flow cytometry using a FACScalibur.

PANC1 cancer stem cells = experiment: limiting dilution re-implant of treated PANC1 tumors; format: in vivo, mice; settings: gemcitabine alone
Source text: Tumors cells from these treatment groups were harvested, dissociated, pooled and re-implanted in a limiting dilution assay (500, 1500, 4500 or 13500 cells/animal) into a new cohort of CB.17 SCID mice and allowed to grow with no treatment.

LGR5 [2] = experiment: LGR5 expression in treated pancreatic cell lines by flow cytometry; format: cell-based
Method: In addition to CRC cell lines to further expand the above findings, expression of LGR5 was investigated in a series of pancreatic cell lines treated with relevant standard of care including nab-paclitaxel, gemcitabine and taxol and also small molecule inhibitors targeting most relevant pathways in pancreatic cancer such as inhibitors of PI3K, MEK and GSK3β. The pancreatic cell lines that were tested include: AsPc1, HPAFII, PANC1, BxPC3, CFPAC, PANC10.05, Capan2 and SW1990.

AsPC-1 cancer stem cells = experiment: limiting dilution experiment, AsPC-1 tumors; format: in vivo, mice; settings: day 40 post treatment, gemcitabine single agent

O=c1[nH]cc(F)c(=O)[nH]1 [5FU, 5 fluorouracil]
LGR5 expression by flow cytometry (LGR5 [1]; any of the CRC lines (DLD1, HCT116, LS174t, LoVo, SW48, SW480, SW620)): did not induce LGR5 expression

CCc1c2c(nc3ccc(O)cc13)-c1cc3c(c(=O)n1C2)COC(=O)[C@]3(O)CC [SN38]
LGR5 expression by flow cytometry (LGR5 [1]; HCT116, LS174t, SW48, SW480 and especially SW620 cells): promoted LGR5 expression

Nc1ccn([C@@H]2O[C@H](CO)[C@@H](O)C2(F)F)c(=O)n1 [gemcitabine, reference compound]
frequency of engraftment (PANC1 cancer stem cells; PANC1, 4500 cells): 40% | frequency of engraftment (PANC1 cancer stem cells; PANC1, 13500 cells): 100% | LGR5 expression by flow cytometry (LGR5 [2]; PANC1): upregulates LGR5 | percentage of tumor bearing mice (AsPC-1 cancer stem cells; AsPC-1, 4500 cells): 40% | percentage of tumor bearing mice (AsPC-1 cancer stem cells; AsPC-1, 13500 cells): 80%

CC(=O)O[C@H]1C(=O)[C@@]2(C)[C@H]([C@H](OC(=O)c3ccccc3)[C@]3(O)C[C@H](OC(=O)[C@H](O)[C@@H](NC(=O)c4ccccc4)c4ccccc4)C(C)=C1C3(C)C)[C@]1(OC(C)=O)CO[C@@H]1C[C@@H]2O [taxol]
LGR5 expression by flow cytometry (LGR5 [2]; HPAFII): increased LGR5 expression

Source: patent US10358500B2, “Humanized antibodies that bind LGR5” (Bionomics Inc., priority 2014, dated 2019)
